Data set [1] relates to normal human induced pluripotent stem cell (hiPSC) cardiomyocyte. The settings on record: for WT-Fold Prolongation: APD.
In data set [2] the target is Nav1.5 sodium channel, peak current (INaP) (Homo sapiens, UniProt Q14524, form not given). Nature of the data set: in vitro. To be noted: Peak Na+ (INaP) IC50. As for the experimental part:
(§1) This provided data to investigate the physiology and action of target compounds on individual ion channels. The assay used standardized protocols for culturing and conducting conventional whole cell recording that have been previously developed for both current and voltage-clamp to characterize action potentials using transfected cells. Briefly, the Nav1.5 sodium channel was transfected into HEK293 cells. […] Briefly, cells were plated on 0.1% gelatin-coated 35-mm plastic Petri dishes. […] Data was reported as IC50 values±STD (Table 1).

For data set [3], the system named is cardiomyocytes derived from hiPSCs from a LQTS3 patient.
In data set [4] the target is Nav1.5 sodium channel transfected into HEK293 cells (Homo sapiens, UniProt Q14524). Nature of the data set: in vitro. As for the experimental part: as §1
Data set [5] deals with hERG potassium channel (IKr) (Homo sapiens, UniProt Q12809). The data set is described as follows: Automated patch clamp, hERG (IKr) expressed in CHO cells. To be noted: for IC50: hERG (IKr) IC50, CHO cells. (In patch-clamp work, channel activity is measured electrically.)
The test system of data set [6] is cardiomyocytes derived from hiPSCs from a LQTS3 patient. The data set is described as follows: cells. The settings on record: Homo sapiens, Cardiomyocyte.
Where [7] appears, read: read-out: LQT-IC50 (uM)-Shortening.
[8] abbreviates: read-out: LQT-EC50 (μM) Shortening, LQT-3 cardiomyocytes, AP shortening.
The mark [9] stands for this setting: read-out: LQT-EC50 (μM) Shortening, pyridyl derivatives.
[10] abbreviates: WT cardiomyocytes, AP prolongation.
Where [11] appears, read: LQT-3 cardiomyocytes, cessation of beating.

What is called IC50 is the concentration at which inhibition is half-maximal. For orientation: EC50 means the concentration at which the effect is half-maximal.

Structures can show the parent of a compound that is named as a salt. Where two headings read alike, the source gives them in different places. A value given as a limit tells only on which side of the number the result lay.

Chain of hERG potassium channel (IKr) (Q12809 whole entry): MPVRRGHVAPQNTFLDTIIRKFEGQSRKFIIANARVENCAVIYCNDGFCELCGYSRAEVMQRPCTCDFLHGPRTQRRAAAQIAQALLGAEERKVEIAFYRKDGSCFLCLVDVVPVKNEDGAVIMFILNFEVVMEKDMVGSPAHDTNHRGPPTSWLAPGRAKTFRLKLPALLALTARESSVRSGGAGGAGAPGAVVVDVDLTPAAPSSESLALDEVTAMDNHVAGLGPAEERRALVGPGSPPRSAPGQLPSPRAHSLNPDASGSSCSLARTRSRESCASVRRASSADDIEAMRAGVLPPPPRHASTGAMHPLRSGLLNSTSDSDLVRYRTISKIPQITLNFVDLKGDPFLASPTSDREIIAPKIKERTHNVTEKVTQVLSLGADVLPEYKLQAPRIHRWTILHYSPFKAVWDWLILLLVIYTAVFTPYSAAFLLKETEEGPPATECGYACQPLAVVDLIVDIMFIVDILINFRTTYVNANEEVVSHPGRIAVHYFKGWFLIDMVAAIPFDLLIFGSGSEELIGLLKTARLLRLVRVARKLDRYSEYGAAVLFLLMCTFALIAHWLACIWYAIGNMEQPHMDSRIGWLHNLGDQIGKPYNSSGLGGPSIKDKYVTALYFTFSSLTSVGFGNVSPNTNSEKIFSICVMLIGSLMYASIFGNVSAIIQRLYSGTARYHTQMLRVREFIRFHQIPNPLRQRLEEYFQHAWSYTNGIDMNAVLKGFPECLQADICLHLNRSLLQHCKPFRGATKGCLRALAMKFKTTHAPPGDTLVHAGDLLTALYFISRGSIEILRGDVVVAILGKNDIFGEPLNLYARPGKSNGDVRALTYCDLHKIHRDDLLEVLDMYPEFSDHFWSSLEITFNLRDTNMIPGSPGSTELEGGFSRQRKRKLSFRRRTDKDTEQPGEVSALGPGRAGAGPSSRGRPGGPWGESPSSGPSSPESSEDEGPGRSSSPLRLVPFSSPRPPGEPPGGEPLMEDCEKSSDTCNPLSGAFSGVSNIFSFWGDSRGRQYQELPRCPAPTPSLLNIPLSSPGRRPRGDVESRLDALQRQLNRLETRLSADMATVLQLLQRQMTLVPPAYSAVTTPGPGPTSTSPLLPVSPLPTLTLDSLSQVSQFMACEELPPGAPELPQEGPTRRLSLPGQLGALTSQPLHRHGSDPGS

As to `Cc1cccnc1OCC(C)N` (stereo not drawn) [Compound 100, 1-(-3-Methyl-pyridin-2-yloxy)propan-2-amine], in data set [1] (normal hiPSC cardiomyocytes), the “WT-Fold Prolongation” value is “None”, the “Cessation of Beating” value is given as “None” and the “WT-Prolongation Dose” value is given as “None”. Also, the IC50 in data set [2] is 252 µM. In data set [3] (LQT3 cardiomyocytes), the “LQT-Cessation Dose” value stood at 22 µM and the “LQT-Fold Shortening” value is reported as 1.13.
`Cc1cc(C)cc(OCC(N)C2CC2)c1.Cl` (stereo not drawn) [Compound 91]: the half-inhibitory concentration (IC50) came to 10 µM in data set [4], 76.8 µM in data set [2], 45.8 µM in data set [5] and 45.8 µM in data set [5] (Example 2). In addition, the DNap/NaL in data set [4] (ratio peak IC50/late IC50) is recorded as 7.7; in data set [4] (ratio peak/late IC50, Example 2) it was 7.68. In addition, the DKr/NaL came to 4.6 in data set [5] (ratio hERG IC50/late Na IC50) and 4.6 in data set [5] (ratio, Example 2). Moreover, the DNaP/Kr was 1.7 in data set [5] (ratio peak Na IC50/hERG IC50) and 1.7 in data set [5] (ratio, Example 2).
As for `Cc1cccc(C)c1OC[C@@H](C)N` [Compound 2a, (R)-(−)-Mexiletine Hydrochloride, reference compound], the IC50 is 0.96 µM in data set [6] (setting [7]), 128 µM in data set [2] and 54 µM in data set [5]. For the same compound, the “WT-EAD Dose” value in data set [1] (normal hiPSC cardiomyocytes) worked out at 200 µM. The “LQT-Cessation Dose” value in data set [3] (LQT3 cardiomyocytes) is “None”.
As for `Cc1cccc(C)c1OCC(C)N` (racemic) [racemic Mexiletine], the IC50 was determined as 1.83 µM in data set [6] (setting [7]), 183 µM in data set [2] and 54 µM in data set [5] (Example 2).
In the case of `Cc1cccc(C)c1OC[C@H](C)N` [Compound 2b, (S)-(+)-Mexiletine Hydrochloride, reference compound], the 50% inhibitory concentration (IC50) amounted to 0.8 µM in data set [6] (setting [7]), 129 µM in data set [2] and 84 µM in data set [5]. In addition, the “WT-EAD Dose” value in data set [1] (normal hiPSC cardiomyocytes) was 200 µM. Besides, in data set [3] (LQT3 cardiomyocytes), the “LQT-Cessation Dose” value is recorded as “None”.
`NC(COc1ccncc1)c1ccccc1` (stereo not drawn) [Compound 126]: the concentration for a half-maximal effect (EC50) in data set [6] (setting [8]) was 3.82 µM; in data set [6] (setting [9]), about 4 µM. For the same compound, the “WT-EC50 (μM) Prolongation” value in data set [1] (setting [10]) is recorded as “Does Not Prolong AP”. In data set [1] (WT cardiomyocytes, cessation of beating), the “WT-Cessation Dose (μM)” value is on record as “No cessation of beating”. In data set [3] (LQT-3 cardiomyocytes), the “LQT-Fold Shortening” value was 1.281.
For the compound `Cc1cccc(C)c1OCC(N)c1ccc(C(F)(F)F)cc1` (stereo not drawn) [Compound 16, 2-(2,6-dimethylphenoxy)-1-(4-(trifluoromethyl)phenyl)ethanamine], the IC50 in data set [6] (setting [7]) came out at 1.38 µM. Moreover, in data set [1] (normal hiPSC cardiomyocytes), the “WT-Fold Prolongation” value was “None”, the “Cessation of Beating” value was 66 µM and the “WT-Prolongation Dose” value is listed as “None”. Also, in data set [3] (LQT3 cardiomyocytes), the “LQT-Cessation Dose” value turned out to be 66 µM and the “LQT-Fold Shortening” value is 1.480.
On to `Cc1ncccc1OCC(N)c1ccccc1` (stereo not drawn) [Compound 111], for which the EC50 in data set [6] (setting [8]) is 8.57 µM. In data set [6] (setting [9]), the EC50 was about 8 µM. For the same compound, in data set [1] (setting [10]), the “WT-EC50 (μM) Prolongation” value was “Does Not Prolong AP”. For the same compound, in data set [3] (LQT-3 cardiomyocytes), the “LQT-Fold Shortening” value was determined as 1.426 and the “LQT-Shortening Dose (μM)” value is recorded as “Does Not Shorten”.
On to `CC(=O)NC(COc1c(C)cccc1C)c1ccccc1` (stereo not drawn) [Compound 28, N-(2-(2,6-dimethylphenoxy)-1-phenylethyl)acetamide], for which the IC50 in data set [6] (setting [7]) was over 0.8 µM. In addition, in data set [1] (normal hiPSC cardiomyocytes), the “WT-Fold Prolongation” value is recorded as “None”, the “Cessation of Beating” value is 66 µM and the “WT-Prolongation Dose” value was “None”. In data set [3] (LQT3 cardiomyocytes), the “LQT-Cessation Dose” value is 66 µM and the “LQT-Fold Shortening” value turned out to be 1.620.
As to `NC(COc1cccc2ccccc12)c1ccccc1` (stereo not drawn) [Compound 129], in data set [6] (setting [8]), the 50% effective concentration (EC50) stood at 0.82 µM. In data set [1] (setting [10]), the “WT-EC50 (μM) Prolongation” value was “Does Not Prolong AP”. For the same compound, in data set [3] (LQT-3 cardiomyocytes), the “LQT-Fold Shortening” value is 1.316. In addition, the “LQT-Cessation Dose” value in data set [3] (setting [11]) worked out at 66 µM.
With `Cc1cccnc1OCC(=NOCc1ccccc1)c1ccccc1` [Compound 19], the half-maximal effective concentration (EC50) in data set [6] (setting [9]) came out at 1.38 µM. For the same compound, the IC50 in data set [6] (setting [7]) amounted to 1.38 µM. Also, in data set [1] (normal hiPSC cardiomyocytes), the “WT-Fold Prolongation” value is given as “None”, the “Cessation of Beating” value turned out to be 133 µM and the “WT-Prolongation Dose” value is listed as “None”. Further, in data set [1] (pyridyl derivatives), the “WT-Cessation Dose” value was 133 µM and the “WT-EC50 (μM) Prolongation” value is “Does Not Prolong AP”. In data set [3] (LQT3 cardiomyocytes), the “LQT-Cessation Dose” value worked out at 133 µM and the “LQT-Fold Shortening” value came out at 1.406. Also, in data set [3] (pyridyl derivatives), the “LQT-Fold Shortening” value is on record as 1.406 and the “LQT-Shortening Dose” value is 66 µM.
Turning to `Cc1cccc(C)c1OCC(C)N` (racemic) [Compound 1, Mexiletine, reference compound], the IC50 in data set [6] (setting [7]) was determined as 1.83 µM; in data set [2] it was 183 µM; in data set [5], 54 µM. In addition, the “WT-EAD Dose” value in data set [1] (normal hiPSC cardiomyocytes) is 200 µM. Also, in data set [3] (LQT3 cardiomyocytes), the “LQT-Cessation Dose” value is reported as “None”.
Consider `Cc1ccccc1OCC(N)c1ccc2ccccc2c1` (stereo not drawn) [Compound 133], for which, in data set [6] (setting [8]), the EC50 was 8.83 µM. For the same compound, the “WT-EC50 (μM) Prolongation” value in data set [1] (setting [10]) was “Does Not Prolong AP”. Moreover, in data set [3] (LQT-3 cardiomyocytes), the “LQT-Fold Shortening” value amounted to 1.302. Moreover, the “LQT-Cessation Dose” value in data set [3] (setting [11]) was determined as 133 µM.
Consider `Cc1cc(C)cc(OC[C@@H](N)C2CC2)c1.Cl` [Compound 62], for which the 50% inhibitory concentration (IC50) in data set [6] (setting [7]) amounted to 1.03 µM. Further, in data set [1] (normal hiPSC cardiomyocytes), the “WT-Fold Prolongation” value amounted to 1.585, the “Cessation of Beating” value was 200 µM and the “WT-EAD Dose” value is 66 µM. Also, in data set [3] (LQT3 cardiomyocytes), the “LQT-Cessation Dose” value was found to be 200 µM and the “LQT-Fold Shortening” value is given as 1.19.
Turning to `CC(N)COC1CCCCC1.Cl` (stereo not drawn) [Compound 87], the 50% inhibitory concentration (IC50) in data set [6] (setting [7]) turned out to be 34.8 µM. In addition, in data set [1] (normal hiPSC cardiomyocytes), the “WT-Fold Prolongation” value is recorded as “None”, the “Cessation of Beating” value is given as “None” and the “WT-Prolongation Dose” value was “None”. Further, in data set [3] (LQT3 cardiomyocytes), the “LQT-Cessation Dose” value is “None” and the “LQT-Fold Shortening” value is on record as 1.611.
`COCCNC(COc1cc(C)cc(C)c1)C1CC1.Cl` (stereo not drawn) [Compound 68]: the IC50 in data set [6] (setting [7]) stood at 0.022 µM. In addition, in data set [1] (normal hiPSC cardiomyocytes), the “WT-Fold Prolongation” value came out at 1.686, the “Cessation of Beating” value is 200 µM and the “WT-EAD Dose” value amounted to 66 µM. Besides, in data set [3] (LQT3 cardiomyocytes), the “LQT-Cessation Dose” value came out at 200 µM and the “LQT-Fold Shortening” value came out at 1.11.
`C[C@@H](N)COc1ccccc1.Cl` [Compound 71, (R)-1-phenoxypropan-2-amine hydrochloride]: in data set [6] (read-out: LQT-IC50 (prolongation)), the IC50 turned out to be 194 µM. Also, in data set [1] (normal hiPSC cardiomyocytes), the “WT-Fold Prolongation” value came to 1.997, the “Cessation of Beating” value is recorded as “None” and the “WT-EAD Dose” value came to 200 µM. Moreover, the “LQT-Cessation Dose” value in data set [3] (LQT3 cardiomyocytes) was “None”. Further, the “LQT-Fold (prolongation)” value in data set [3] (cell in fold shortening column marked (prolongation)) was 1.214 (prolongation).
Turning to `Cc1cccc(Cl)c1OC[C@@H](C)N` [Compound 56], in data set [6] (setting [7]), the IC50 came to 0.04 µM. Besides, in data set [1] (normal hiPSC cardiomyocytes), the “WT-Fold Prolongation” value came out at 3.925, the “Cessation of Beating” value is reported as “None” and the “WT-EAD Dose” value came to 133 µM. Besides, in data set [3] (LQT3 cardiomyocytes), the “LQT-Cessation Dose” value is listed as “None” and the “LQT-Fold Shortening” value is on record as 1.189.
Take `Cc1cccc(C)c1OC[C@@H](N)C1CC1.Cl` [Compound 60]: in data set [6] (setting [7]), the IC50 is 0.11 µM. For the same compound, the “WT-Fold Prolongation” value in data set [1] (normal hiPSC cardiomyocytes) was 2.805. Further, in data set [1] (human, 5 min), the “Cessation of Beating” value worked out at 200 µM and the “WT-EAD Dose” value was 66 µM. In data set [3] (LQT3 cardiomyocytes), the “LQT-Fold Shortening” value came to 1.22. Also, the “LQT-Cessation Dose” value in data set [3] (human, 5 min) was 200 µM.
As to `CCc1ccccc1OCC(N)c1ccccc1` (stereo not drawn) [Compound 24], in data set [6] (setting [7]), the IC50 amounted to 0.38 µM. Moreover, in data set [1] (normal hiPSC cardiomyocytes), the “WT-Fold Prolongation” value is “None”, the “Cessation of Beating” value stood at 66 µM and the “WT-Prolongation Dose” value is on record as “None”. Further, in data set [3] (LQT3 cardiomyocytes), the “LQT-Cessation Dose” value is 22 µM and the “LQT-Fold Shortening” value turned out to be 1.979.
